Assay results: ChEMBL document CHEMBL3988442, “University of Dundee, Small-Polar-MMV Screening Library” (2021)
Values joined by “and” are separate entries in the source; they are usually repeats but may differ in a detail not shown here. Equal entries are not always repeated.

Experiments:
[1] = molecular target: T1, Coenzyme A biosynthesis bifunctional protein CoaBC (Mycobacterium tuberculosis (strain ATCC 25618 / H37Rv), UniProt P9WNZ1); assay: Biomol Green assay for MtCoaBC inhibitor, OD650 read; format: functional
T1 sequence (P9WNZ1 whole entry): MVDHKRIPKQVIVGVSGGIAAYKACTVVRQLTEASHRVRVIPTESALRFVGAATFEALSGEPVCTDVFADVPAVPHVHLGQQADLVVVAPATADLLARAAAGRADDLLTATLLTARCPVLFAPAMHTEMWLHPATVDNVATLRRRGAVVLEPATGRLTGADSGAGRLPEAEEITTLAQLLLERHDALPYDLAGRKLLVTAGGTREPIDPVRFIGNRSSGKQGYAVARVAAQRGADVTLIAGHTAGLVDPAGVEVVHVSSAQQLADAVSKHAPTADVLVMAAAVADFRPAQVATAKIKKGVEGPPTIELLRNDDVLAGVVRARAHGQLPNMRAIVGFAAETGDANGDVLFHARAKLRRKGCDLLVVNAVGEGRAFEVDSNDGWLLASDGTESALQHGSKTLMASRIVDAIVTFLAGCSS

[2] = molecular target: AMP-activated protein kinase, AMPK; assay: AMP-dependent Kinase enzyme assay. An in vitro enzyme assay that detects ADP turnover that is directly proportional to AMPK activity. This uses naive AMPK that is activated during the assay with MK-8722; format: functional, Homo sapiens
[3] = system: Schistosoma mansoni; assay: High throughput screening of compounds against Schistosoma mansoni motility; format: functional; set-up: dose or concentration left out as unconfirmed
[4] = molecular target: ClpP1P2 (Mycobacterium tuberculosis (strain ATCC 25618 / H37Rv), UniProt P9WPC3+P9WPC5); assay: in vitro assay to detect presence of AMC directly proportional to the activity of ClpP1P2. GHDDI collaboration.; format: functional
[5] = molecular target: T2, Histidine--tRNA ligase (Leishmania infantum, UniProt A4I591); assay: Leishmania infantum Histidine tRNA synthetase (LdHisRS); format: functional
T2 sequence (A4I591 whole entry): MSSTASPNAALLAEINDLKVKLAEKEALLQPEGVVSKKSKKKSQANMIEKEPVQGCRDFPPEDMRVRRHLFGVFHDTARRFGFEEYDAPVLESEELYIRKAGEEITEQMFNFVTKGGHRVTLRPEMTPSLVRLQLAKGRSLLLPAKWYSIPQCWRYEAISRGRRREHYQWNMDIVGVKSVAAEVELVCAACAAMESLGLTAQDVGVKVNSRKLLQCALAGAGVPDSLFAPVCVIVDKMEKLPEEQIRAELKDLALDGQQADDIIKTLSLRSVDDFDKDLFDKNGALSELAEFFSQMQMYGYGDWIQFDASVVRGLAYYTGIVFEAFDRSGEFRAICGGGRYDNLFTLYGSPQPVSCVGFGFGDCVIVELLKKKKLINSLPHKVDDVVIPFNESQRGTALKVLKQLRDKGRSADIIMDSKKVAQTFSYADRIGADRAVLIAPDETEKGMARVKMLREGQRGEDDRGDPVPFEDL

[6] = molecular target: Polyketide synthase Pks13 (Mycobacterium tuberculosis (strain ATCC 25618 / H37Rv), UniProt I6X8D2); assay: Mycobacterium tuberculosis Polyketide synthase 13 Thioesterase (PKS13); format: functional
[7] = system: Leishmania donovani; assay: Leishmania intramacrophage assay; format: functional, organism-based; details: Leishmania donovani
[8] = molecular target: Lysine--tRNA ligase (Plasmodium falciparum (isolate 3D7), UniProt Q8IDJ8); assay: Pf-KRS-1 (Lysyl-RNA Synthetase-1, KRS-1, cytosolic KRS) from Plasmodium falciparum. Inhibitor assay, 384 well plate, luminescence read.; format: functional
[9] = molecular target: T3, Histidine--tRNA ligase (Trypanosoma cruzi (strain CL Brener), UniProt Q4DA54); assay: Trypanosoma cruzi histidyl tRNA synthetase (Tc-HisRS); format: functional
T3 sequence (Q4DA54 whole entry): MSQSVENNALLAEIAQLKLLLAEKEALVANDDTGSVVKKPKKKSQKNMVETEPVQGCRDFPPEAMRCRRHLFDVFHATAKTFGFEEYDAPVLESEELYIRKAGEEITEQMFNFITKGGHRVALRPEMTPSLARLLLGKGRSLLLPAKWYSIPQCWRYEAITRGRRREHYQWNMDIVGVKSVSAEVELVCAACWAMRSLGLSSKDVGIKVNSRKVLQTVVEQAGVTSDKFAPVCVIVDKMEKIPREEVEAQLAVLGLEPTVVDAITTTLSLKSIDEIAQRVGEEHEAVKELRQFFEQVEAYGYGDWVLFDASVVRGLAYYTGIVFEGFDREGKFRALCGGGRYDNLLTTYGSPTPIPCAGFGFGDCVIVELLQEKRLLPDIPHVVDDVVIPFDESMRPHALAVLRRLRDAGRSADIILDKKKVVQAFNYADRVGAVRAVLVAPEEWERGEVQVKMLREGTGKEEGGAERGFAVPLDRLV

[10] = system: Plasmodium falciparum; assay: Calibr Malaria Delayed Death Assay SOP; format: functional, organism-based; details: for IC50: Plasmodium falciparum
[11] = molecular target: T4, Ubiquitin-activating enzyme e1, putative (Leishmania donovani (strain BPK282A1), UniProt E9BSI1); assay: Leishmania donovani Ubiquitin Activating Enzyme (LdE1); format: functional
T4 sequence (E9BSI1 whole entry): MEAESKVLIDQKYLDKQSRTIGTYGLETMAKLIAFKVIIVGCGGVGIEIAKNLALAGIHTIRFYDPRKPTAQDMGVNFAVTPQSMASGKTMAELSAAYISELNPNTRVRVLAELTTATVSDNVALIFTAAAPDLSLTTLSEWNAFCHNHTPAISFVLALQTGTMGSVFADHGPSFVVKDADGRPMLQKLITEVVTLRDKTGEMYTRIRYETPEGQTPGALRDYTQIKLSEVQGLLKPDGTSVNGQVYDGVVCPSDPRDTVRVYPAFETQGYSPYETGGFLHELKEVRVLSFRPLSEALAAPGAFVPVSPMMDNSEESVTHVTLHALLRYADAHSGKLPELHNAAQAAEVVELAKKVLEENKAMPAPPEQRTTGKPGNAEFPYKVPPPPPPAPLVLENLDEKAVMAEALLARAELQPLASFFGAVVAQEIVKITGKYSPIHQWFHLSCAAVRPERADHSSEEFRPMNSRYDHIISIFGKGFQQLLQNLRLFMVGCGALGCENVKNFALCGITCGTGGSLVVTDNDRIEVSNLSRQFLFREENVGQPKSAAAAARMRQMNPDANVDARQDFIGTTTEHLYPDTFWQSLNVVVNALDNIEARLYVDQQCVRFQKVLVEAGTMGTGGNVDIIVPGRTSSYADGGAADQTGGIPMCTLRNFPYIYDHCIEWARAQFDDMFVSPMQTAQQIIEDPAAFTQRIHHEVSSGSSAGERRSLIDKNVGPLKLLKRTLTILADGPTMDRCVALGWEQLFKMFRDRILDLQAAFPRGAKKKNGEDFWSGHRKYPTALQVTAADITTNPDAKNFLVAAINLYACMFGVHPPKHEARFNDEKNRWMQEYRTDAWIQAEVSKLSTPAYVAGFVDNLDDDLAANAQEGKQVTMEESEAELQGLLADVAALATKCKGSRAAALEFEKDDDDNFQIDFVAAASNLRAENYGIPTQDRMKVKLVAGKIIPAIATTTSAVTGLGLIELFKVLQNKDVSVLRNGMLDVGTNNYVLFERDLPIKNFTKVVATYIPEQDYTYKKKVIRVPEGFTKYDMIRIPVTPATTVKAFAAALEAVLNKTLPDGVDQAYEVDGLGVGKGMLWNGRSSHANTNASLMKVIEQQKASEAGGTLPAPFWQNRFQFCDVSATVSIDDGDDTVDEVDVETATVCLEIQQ

CC(C)c1n[nH]c(C(=O)NC(C)c2ccncc2)c1Br (stereo not given)
IC50 [1]: > 30.2 µM | pIC50 [2]: < 4

CC(CN1CCN(C)CC1)NC(=O)c1cc(Cl)c2c(c1)OCO2 (stereo not given)
Percent Effect [3]: -52.41% | pIC50 [2]: < 4

Cc1nn(C)c(N2CCOCC2)c1CNC(C)c1ccco1 (stereo not given)
Percent Effect [3]: -29.3% | pIC50 [2]: < 4

Cc1nc(N)nc(C)c1CC(=O)N1CCC2(CC1)OCCCC2O (stereo not given)
IC50 [1]: > 30.2 µM | pIC50 [2]: < 4

COc1ccc(CC2(CO)CCN(c3cc(C#N)ccn3)CC2)cc1
IC50 [4]: > 100 µM | pIC50 [2]: < 4

COc1ccccc1OCc1cc(C(=O)N2CC(O)C2)n[nH]1
Percent Effect [3]: -18.55% | pIC50 [2]: < 4

c1cc(-c2ccc3c(c2)CCC32CCNCC2)ccn1
pIC50 [2]: < 4 | IC50 [5]: > 100 µM

COc1cc(/C=C/c2ncc(C(=O)O)s2)cc(Cl)c1O
IC50 [1]: > 50.1 µM and > 30.2 µM (2×) and 45.3 µM | pIC50 [2]: 4.507 and 4.461 | IC50 [6]: 23.7 µM and 18.7 µM

O=C(NCc1ccccc1)c1nnc2ccc(N3CCOCC3)cc2n1
pIC50 [2]: < 4 | IC50 [6]: 16 µM and 24.5 µM

FC1(F)CCN(Cc2ccccn2)CC12CCN(c1cccnc1)C2.O=C(O)C(F)(F)F.O=C(O)C(F)(F)F.O=C(O)C(F)(F)F (stereo not given)
pIC50 [2]: < 4 | IC50 [7]: > 50.1 µM

CC(C)C1CCCN1C(=O)Nc1ccc(=O)n(C)c1 (stereo not given)
IC50 [8]: > 50.1 µM | pIC50 [2]: < 4 | IC50 [9]: 19 µM and 22.3 µM | IC50 [5]: 1.01 µM and 1.02 µM and 2.81 µM and 2.75 µM

Cc1cc(-c2cnc(NC3CCCC3)nc2-c2ccco2)on1
pIC50 [2]: 4.667 and < 4.31

CCOc1cccc2c1OCC(C(=O)NS(=O)(=O)c1ccc(Cl)cc1)=C2
pIC50 [2]: < 4

CCn1nc(C)c2ccn(CC(=O)NC3CCCC3)c(=O)c21
pIC50 [2]: < 4

CCc1cc(NCCc2ccc(O)cc2)n2nccc2n1
Percent Effect [3]: -42.86% | pIC50 [2]: 4.438 and 4.726

Cc1cnn(CC2CN(Cc3nnc(C4CC4)o3)CCO2)c1 (stereo not given)
pIC50 [2]: < 4

Cn1cnc(S(=O)(=O)N2C[C@@H]3CC[C@H](C2)N(Cc2ccccn2)C3)c1
pIC50 [2]: < 4

CCS(=O)(=O)CC(=O)NC(c1ccc(F)cc1)C1CCCC1 (stereo not given)
pIC50 [2]: < 4

CNC(=O)c1cccc(NC(=O)Cn2nc(-c3cccs3)oc2=O)c1
pIC50 [2]: < 4

COc1cc(CNC2CCCc3c2cnn3C)cc(OC)c1.Cl (stereo not given)
pIC50 [2]: < 4

CC(C)c1n[nH]c(C(=O)Nc2ccccn2)c1Br
pIC50 [2]: < 4 | pIC50 [10]: 6.515 | IC50 [10]: 0.24 µM

Cc1cc(-c2cnc(NC3CC3)nc2-c2ccco2)on1
pIC50 [2]: < 4 and 4.22

CC1(C)Cc2ccccc2-c2nc(NCCO)[nH]c(=O)c21
pIC50 [2]: 4.722 and 4.636 and 4.548 and 4.621 | IC50 [6]: 16.8 µM and 19.4 µM

CC(C)c1cc(C(=O)NCCc2nc(-c3cccnc3)n[nH]2)[nH]n1
pIC50 [2]: 4.471 and 4.569 and 4.528 and 4.581

c1cc(-c2ccc3c(c2)C2(CCNCC2)CC3)ccn1
pIC50 [2]: < 4

Cc1cccc(-c2nc(CN3CCc4cnc(C)nc4C3)no2)c1
pIC50 [2]: < 4

Cc1cc(-c2cnc(NC3CCCC3)nc2-c2ccoc2)on1
pIC50 [2]: < 4

CN(C)S(=O)(=O)N1C[C@H](Oc2cccnc2)[C@H]2OCCC[C@H]21.O=C(O)C(F)(F)F
pIC50 [2]: < 4

CN(C)c1nc2sc(C(=O)N3CCN(C(=O)OC(C)(C)C)CC3)cc2s1
pIC50 [2]: < 4

CCc1csc(C2CCCN(C(=O)c3cnn(CC)c3)C2)n1 (stereo not given)
pIC50 [2]: < 4

Cc1occc1-c1nc(NC2CCCC2)ncc1-c1ccccn1
pIC50 [2]: < 4

Cc1nc(N2CCN(C)CC2)ncc1C(=O)N1CCC(O)(CO)CC1
pIC50 [2]: < 4

Cc1cccc(NC(=O)c2[nH]nc(C(C)C)c2Br)n1
pIC50 [2]: < 4 | IC50 [6]: > 100 µM

CC1COCCN1Cc1nc(-c2cccs2)no1 (stereo not given)
pIC50 [2]: < 4

CC(C)c1nc2n(n1)CC(NCc1nnc(C(C)C)o1)CC2 (stereo not given)
IC50 [11]: > 100 µM | pIC50 [2]: < 4

CN(C)S(=O)(=O)NC1CCCc2c1cnn2-c1ccc(C(C)(C)C)cc1 (stereo not given)
pIC50 [2]: < 4

Cc1ccnc(NC(=O)c2[nH]nc(C(C)C)c2Br)c1
IC50 [1]: > 30.2 µM | pIC50 [2]: < 4 | pIC50 [10]: 6.433 | IC50 [10]: 0.23 µM

CCc1nnc2n1CCN(C(=O)c1ccc3nc(C)c(C)nc3c1)C2
Percent Effect [3]: -15.27% | pIC50 [2]: < 4

CC(C)NC(=O)N1CC[C@@H]2CN(Cc3ccccc3)S(=O)(=O)[C@@H]2CC1
pIC50 [2]: < 4

CNc1nc(C(=O)N2CCCC(COc3ccc(F)cc3)C2)cs1 (stereo not given)
pIC50 [2]: < 4

CC(C)(C)NC(=O)CNc1ncccn1
pIC50 [2]: < 4
